Test results published in ChEMBL document CHEMBL4340512, “Discovery of novel triazolo[4,3-b]pyridazin-3-yl-quinoline derivatives as PIM inhibitors” (Eur J Med Chem, 2019).

Columns and labels:
HCT-116 = assay: Antiproliferative activity against human HCT116 cells incubated for 72 hrs by CellTiter-Glo luminescence assay; assay type: functional; conditions: HCT-116, 72 h
U-87 MG [1] = assay: Antiproliferative activity against human U87MG cells incubated for 72 hrs by CellTiter-Glo luminescence assay; assay type: functional, U-87MG ATCC
PANC-1 = assay: Antiproliferative activity against human PANC1 cells incubated for 72 hrs by CellTiter-Glo luminescence assay; assay type: functional; conditions: PANC-1, 72 h
NCI-H1650 = assay: Antiproliferative activity against human NCI-H1650 cells incubated for 72 hrs by CellTiter-Glo luminescence assay; assay type: functional; conditions: NCI-H1650, 72 h
[2] = biological target: Serine/threonine-protein kinase pim-2 (Homo sapiens, UniProt Q9P1W9); assay: Inhibition of His tagged human recombinant PIM2 using PIM tide (ARKRRRHPSGPPTA) as substrate incubated for 1 hr by fluorescence based assay
PC-3 [3] = assay: Antiproliferative activity against human PC3 cells incubated for 72 hrs by CellTiter-Glo luminescence assay; assay type: functional; conditions: PC-3, 72 h
DU-145 = assay: Antiproliferative activity against human DU145 assessed as combination index at 20 uM incubated for 72 hrs in presence of GI50 dose of Lapatinib by CellTiter-Glo luminescence assay; assay type: functional
PC-3 [4] = assay: Antiproliferative activity against human PC3 assessed as combination index at 20 uM incubated for 72 hrs in presence of GI50 dose of Bortezomib by CellTiter-Glo luminescence assay; assay type: functional
MV4-11 = assay: Antiproliferative activity against human MV4-11 assessed as combination index at 10 uM incubated for 72 hrs in presence of GI50 dose of Taxotere by CellTiter-Glo luminescence assay; assay type: functional
[5] = Antiproliferative activity against human TC71 cells incubated for 72 hrs by CellTiter-Glo luminescence assay; assay type: functional; conditions: TC-71, 72 h
MDA-MB-231 [6] = assay: Antiproliferative activity against human MDA-MB-231 assessed as combination index at 20 uM incubated for 72 hrs in presence of GI50 dose of PD-0325901 by CellTiter-Glo luminescence assay; assay type: functional
SK-MEL19 [7] = assay: Antiproliferative activity against human SK-MEL-19 assessed as combination index at 5 uM incubated for 72 hrs in presence of GI50 dose of GDC-0941 by CellTiter-Glo luminescence assay; assay type: functional
T84 = assay: Antiproliferative activity against human T84 cells incubated for 72 hrs by CellTiter-Glo luminescence assay; assay type: functional; conditions: T84, 72 h
SK-MEL19 [8] = assay: Antiproliferative activity against human SK-MEL-19 cells incubated for 72 hrs by CellTiter-Glo luminescence assay; assay type: functional; conditions: SK-MEL19, 72 h
U-87 MG [9] = assay: Antiproliferative activity against human U87MG assessed as combination index at 20 uM incubated for 72 hrs in presence of GI50 dose of GDC-0941 by CellTiter-Glo luminescence assay; assay type: functional, U-87MG ATCC
T47D = assay: Antiproliferative activity against human T47D assessed as combination index at 20 uM incubated for 72 hrs in presence of GI50 dose of Lapatinib by CellTiter-Glo luminescence assay; assay type: functional
[10] = Antiproliferative activity against human MDA-MB-175 cells incubated for 72 hrs by CellTiter-Glo luminescence assay; assay type: functional
BXPC-3 = assay: Antiproliferative activity against human BxPC3 cells incubated for 72 hrs by CellTiter-Glo luminescence assay; assay type: functional; conditions: BXPC-3, 72 h
SK-MEL19 [11] = assay: Antiproliferative activity against human SK-MEL-19 assessed as combination index at 5 uM incubated for 72 hrs in presence of GI50 dose of Taxotere by CellTiter-Glo luminescence assay; assay type: functional
BT-549 = assay: Antiproliferative activity against human BT549 cells incubated for 72 hrs by CellTiter-Glo luminescence assay; assay type: functional; conditions: BT-549, 72 h
[12] = biological target: T1, Serine/threonine-protein kinase pim-1 (Homo sapiens, UniProt P11309); assay: Inhibition of PIM1 in human NCI-H1299 cells assessed as reduction in BAD phosphorylation at Ser-112 residue incubated for 4 hrs by ELISA; assay type: cell-based; conditions: read-out: EC50
Raji = assay: Antiproliferative activity against human Raji assessed as combination index at 20 uM incubated for 72 hrs in presence of GI50 dose of Palbociclib by CellTiter-Glo luminescence assay; assay type: functional
JeKo-1 = assay: Antiproliferative activity against human JeKo1 assessed as combination index at 10 uM incubated for 72 hrs in presence of GI50 dose of GDC-0941 by CellTiter-Glo luminescence assay; assay type: functional
[13] = biological target: T1, Serine/threonine-protein kinase pim-1; assay: Inhibition of His tagged human recombinant PIM1 using PIM tide (ARKRRRHPSGPPTA) as substrate incubated for 1 hr by fluorescence based assay
PC-3 [14] = assay: Antiproliferative activity against human PC3 assessed as combination index at 20 uM incubated for 72 hrs in presence of GI50 dose of GDC-0941 by CellTiter-Glo luminescence assay; assay type: functional
MDA-MB-231 [15] = assay: Antiproliferative activity against human MDA-MB-231 assessed as combination index at 20 uM incubated for 72 hrs in presence of GI50 dose of Lapatinib by CellTiter-Glo luminescence assay; assay type: functional
HL-60 = assay: Antiproliferative activity against human HL60 cells incubated for 72 hrs by CellTiter-Glo luminescence assay; assay type: functional; conditions: HL-60, 72 h
MCF7 = assay: Antiproliferative activity against human MCF7 cells incubated for 72 hrs by CellTiter-Glo luminescence assay; assay type: functional; conditions: MCF7, 72 h
[16] = Clearance in iv dosed Balb/c mouse administered as single dose measured after 0.08 to 4 hrs by HPLC/MS analysis relative to hepatic blood flow; assay type: ADME, organism-based; conditions: in vivo
A498 = assay: Antiproliferative activity against human A498 cells incubated for 72 hrs by CellTiter-Glo luminescence assay; assay type: functional; conditions: A498, 72 h

COCCN1CCOc2c1cnn1c(-c3ccc4cccc(NCC5CCNCC5)c4n3)nnc21
GI50 (HCT-116): 21.2 µM
GI50 (U-87 MG [1]): 21.7 µM
GI50 (PANC-1): 25.4 µM
GI50 (NCI-H1650): 22.5 µM
IC50 [2]: 5.53 µM
GI50 (PC-3 [3]): 17.1 µM
CI (DU-145): 0.0001
CI (PC-3 [4]): 0.313
CI (MV4-11): 0.526
GI50 [5]: 14.9 µM
CI (MDA-MB-231 [6]): 0.32
CI (SK-MEL19 [7]): 0.308
GI50 (T84): 23.2 µM
GI50 (SK-MEL19 [8]): 1.48 µM
CI (U-87 MG [9]): 0.008
CI (T47D): 0.0001
GI50 [10]: 10.2 µM
GI50 (BXPC-3): 9.21 µM
CI (SK-MEL19 [11]): 0.535
GI50 (BT-549): 20.4 µM
EC50 [12]: 0.262 µM
CI (Raji): 0.52
CI (JeKo-1): 0.295
IC50 [13]: 0.007 µM
CI (PC-3 [14]): 0.094
CI (MDA-MB-231 [15]): 0.116
GI50 (HL-60): 13.6 µM
GI50 (MCF7): 19.6 µM
CLH [16]: < 30%
GI50 (A498): 8.98 µM
